Experimental data published in publication PMC12217461 (Antimicrobial Agents and Chemotherapy, 2025).

Experiments:
Test in all cases: microbe, parasite or virus in culture
Type in all cases: cell-based
[1] = tested on: Escherichia coli ATCC 25922; settings: ATCC25922, QC 3, no acquired β-lactamase, TAN/XER fixed at 4 µg/mL, XER 8 µg/mL in MEM-XER, read-out: Minimal inhibitory concentration
Procedure: (§1) To assess the inhibitory potency of XER, susceptibility testing was performed by broth microdilution method, determining the minimal inhibitory concentrations (MICs) of different antibiotics or antibiotic plus β-lactamase inhibitor combinations, including cefepime (FEP), imipenem (IPM), meropenem (MEM), and their combinations with XER (FEP-XER, IPM-XER, and MEM-XER). All data obtained with XER-based combinations were compared with data with TAN-based combinations, FEP-TAN, IPM-TAN, and MEM-TAN ([16]). FEP was purchased from Sigma-Aldrich (Saint-Louis, USA), whereas MEM was from HuiChem (Shanghai, China). […] MICs were determined in triplicate in cation-adjusted Mueller-Hinton (MH) broth (Bio-Rad, Marnes-la-Coquette, France) according to the CLSI guidelines ([53]). The results were interpreted according to the decrease in MIC value for the same antibiotic or combination of the corresponding recombinant strain producing the MBL enzyme. […] In a recent phase I clinical evaluation, XER was combined with cefiderocol. However, as this latter β-lactam substrate is known to be poorly hydrolyzed by IMP enzymes, it was not considered for the evaluation of XER inhibitory activity in this study. Instead, carbapenems were used as a substrate to evaluate the β-lactamase IMP activity in the presence or absence of XER and TAN, as it was deemed more specific for the IMP carbapenemase activity.

[2] = tested on: Klebsiella pneumoniae ATCC BAA-2814; settings: ATCCBAA2814, read-out: Minimal inhibitory concentration
Procedure: as §1

[3] = tested on: P. aeruginosa ATCC 27853; settings: Pseudomonas aeruginosa, ATCC27853; QC 4; no acquired β-lactamase; TAN/XER fixed at 4 µg/mL, XER 8 µg/mL in MEM-XER; read-out: Minimal inhibitory concentration
Procedure: as §1

[4] = tested on: Escherichia coli NCTC 13353; settings: NCTC13353, read-out: Minimal inhibitory concentration
Procedure: as §1

[5] = tested on: Klebsiella pneumoniae SMART 1137; settings: SMART1137, read-out: Minimal inhibitory concentration
Procedure: (§2) Most isolates and their respective β-lactamase content were characterized by whole-genome sequencing.
as §1

[6] = tested on: Klebsiella pneumoniae SMART 875; settings: SMART875, IMP-26, CTX-M-15, TEM-1 like, TAN/XER fixed at 4 µg/mL, XER 8 µg/mL in MEM-XER, read-out: Minimal inhibitory concentration
Procedure: as §2, §1

[7] = tested on: Klebsiella pneumoniae SMART 1134; settings: IMP-34, CTX-M-2, TAN/XER fixed at 4 µg/mL, XER 8 µg/mL in MEM-XER; for MIC: Klebsiella pneumoniae, SMART1134, read-out: Minimal inhibitory concentration
Procedure: as §2, §1

[8] = tested on: Pseudomonas aeruginosa PA10; settings: IMP-2, TAN/XER fixed at 4 µg/mL, XER 8 µg/mL in MEM-XER, read-out: Minimal inhibitory concentration
Procedure: as §2, §1

[9] = tested on: Klebsiella pneumoniae Kp 5 IMP; settings: KP5IMP, read-out: Minimal inhibitory concentration
Procedure: as §2, §1

[10] = tested on: Pseudomonas aeruginosa PA14; settings: IMP-18, TAN/XER fixed at 4 µg/mL, XER 8 µg/mL in MEM-XER, read-out: Minimal inhibitory concentration
Procedure: as §2, §1

[11] = tested on: Pseudomonas aeruginosa PA15; settings: IMP-19, TAN/XER fixed at 4 µg/mL, XER 8 µg/mL in MEM-XER, read-out: Minimal inhibitory concentration
Procedure: as §2, §1

[12] = tested on: Enterobacter hormaechei subsp. steigerwaltii SMART 398; settings: read-out: Minimal inhibitory concentration
Procedure: as §2, §1

[13] = tested on: Klebsiella pneumoniae SMART 882; settings: for MIC: Klebsiella pneumoniae, SMART882, read-out: Minimal inhibitory concentration
Procedure: as §2, §1

[14] = tested on: Serratia marcescens SMART 2558; settings: SMART2558, IMP-8, CTX-M-3, TAN/XER fixed at 4 µg/mL, XER 8 µg/mL in MEM-XER, read-out: Minimal inhibitory concentration
Procedure: as §2, §1

[15] = tested on: Klebsiella pneumoniae SMART 651; settings: SMART651, read-out: Minimal inhibitory concentration
Procedure: as §2, §1

[16] = tested on: Pseudomonas aeruginosa PA11; settings: IMP-10, TAN/XER fixed at 4 µg/mL, XER 8 µg/mL in MEM-XER, read-out: Minimal inhibitory concentration
Procedure: as §2, §1

[17] = tested on: Enterobacter hormaechei subsp. oharae SMART 1260; settings: read-out: Minimal inhibitory concentration
Procedure: as §2, §1

[18] = tested on: Escherichia coli SMART 1132; settings: SMART1132, IMP-6, CTX-M-2, TAN/XER fixed at 4 µg/mL, XER 8 µg/mL in MEM-XER, read-out: Minimal inhibitory concentration
Procedure: as §2, §1

[19] = tested on: Escherichia coli SMART 1735; settings: SMART1735, IMP-59, TEM-1, TAN/XER fixed at 4 µg/mL, XER 8 µg/mL in MEM-XER, read-out: Minimal inhibitory concentration
Procedure: as §2, §1

[20] = tested on: Pseudomonas aeruginosa PA12; settings: IMP-13, TAN/XER fixed at 4 µg/mL, XER 8 µg/mL in MEM-XER, read-out: Minimal inhibitory concentration
Procedure: as §2, §1

[21] = tested on: Enterobacter hormaechei subsp. steigerwaltii SMART 1234; settings: read-out: Minimal inhibitory concentration
Procedure: as §2, §1

[22] = tested on: Escherichia coli SMART 640; settings: SMART640, IMP-14, CTX-M-27, OXA-10, TAN/XER fixed at 4 µg/mL, XER 8 µg/mL in MEM-XER, read-out: Minimal inhibitory concentration
Procedure: as §2, §1

SMILES | MIC [1] [µg/mL] | MIC [2] [µg/mL] | MIC [3] [µg/mL] | MIC [4] [µg/mL] | MIC [5] [µg/mL] | MIC [6] [µg/mL] | MIC [7] [µg/mL] | MIC [8] [µg/mL] | MIC [9] [µg/mL] | MIC [10] [µg/mL] | MIC [11] [µg/mL] | MIC [12] [µg/mL] | MIC [13] [µg/mL] | MIC [14] [µg/mL] | MIC [15] [µg/mL] | MIC [16] [µg/mL] | MIC [17] [µg/mL] | MIC [18] [µg/mL] | MIC [19] [µg/mL] | MIC [20] [µg/mL] | other results
CO/N=C(\C(=O)N[C@@H]1C(=O)N2C(C(=O)[O-])=C(C[N+]3(C)CCCC3)CS[C@H]12)c1csc(N)n1 [FEP, cefepime] | ≤ 0.25 | > 256 | 1 | 256 | > 256 | 64 | 256 | > 256 | 256 | 256 | > 256 | 128 | 256 | 32 | 64 | > 256 | 32 | 128 | 8 | 128 | MIC [21]: 8 µg/mL; MIC [22]: 128 µg/mL
C[C@@H](O)[C@H]1C(=O)N2C(C(=O)O)=C(S[C@@H]3CN[C@H](C(=O)N(C)C)C3)[C@H](C)[C@H]12 [MEM, meropenem] | ≤ 0.25 | 64 | 0.5 | ≤ 0.25 | 128 | 0.125 | 16 | 32 | 0.5 | 32 | 64 | 0.5 | 4 | 0.25 | 8 | > 256 | 1 | 4 | 0.5 | 16 | Minimal inhibitory concentration [7]: 8 µg/mL; Minimal inhibitory concentration ([13]; IMP-26, CTX-M-15, OXA-1, TAN/XER fixed at 4 µg/mL, XER 8 µg/mL in MEM-XER): 1 µg/mL; MIC [21]: 0.5 µg/mL; MIC [22]: 4 µg/mL
C[C@@H](O)[C@H]1C(=O)N2C(C(=O)O)=C(SCCN=CN)C[C@H]12 [IPM, imipenem] | ≤ 0.25 | 16 | 1 | ≤ 0.25 | 2 | ≤ 0.25 | 0.5 | 32 | ≤ 0.25 | 128 | 256 | 0.5 | ≤ 0.25 | ≤ 0.25 | 1 | 256 | ≤ 0.25 | ≤ 0.25 | ≤ 0.25 | 8 | MIC [21]: ≤ 0.25 µg/mL; MIC [22]: 0.5 µg/mL
